Results as given in ChEMBL document CHEMBL1136068 (Bioorg Med Chem Lett, 2003).
The source made the active and inactive calls. The rule behind the calls is not given here.

Columns and labels:
Progesterone receptor [1] = target: T1, Progesterone receptor (Homo sapiens, UniProt P06401); experiment: Inhibitory concentration for antagonistic activity towards human progesterone receptor (hPR) using the cotransfection assay in CV-1 cells; Not active; type: functional, cell-based
T1 sequence (P06401 whole entry): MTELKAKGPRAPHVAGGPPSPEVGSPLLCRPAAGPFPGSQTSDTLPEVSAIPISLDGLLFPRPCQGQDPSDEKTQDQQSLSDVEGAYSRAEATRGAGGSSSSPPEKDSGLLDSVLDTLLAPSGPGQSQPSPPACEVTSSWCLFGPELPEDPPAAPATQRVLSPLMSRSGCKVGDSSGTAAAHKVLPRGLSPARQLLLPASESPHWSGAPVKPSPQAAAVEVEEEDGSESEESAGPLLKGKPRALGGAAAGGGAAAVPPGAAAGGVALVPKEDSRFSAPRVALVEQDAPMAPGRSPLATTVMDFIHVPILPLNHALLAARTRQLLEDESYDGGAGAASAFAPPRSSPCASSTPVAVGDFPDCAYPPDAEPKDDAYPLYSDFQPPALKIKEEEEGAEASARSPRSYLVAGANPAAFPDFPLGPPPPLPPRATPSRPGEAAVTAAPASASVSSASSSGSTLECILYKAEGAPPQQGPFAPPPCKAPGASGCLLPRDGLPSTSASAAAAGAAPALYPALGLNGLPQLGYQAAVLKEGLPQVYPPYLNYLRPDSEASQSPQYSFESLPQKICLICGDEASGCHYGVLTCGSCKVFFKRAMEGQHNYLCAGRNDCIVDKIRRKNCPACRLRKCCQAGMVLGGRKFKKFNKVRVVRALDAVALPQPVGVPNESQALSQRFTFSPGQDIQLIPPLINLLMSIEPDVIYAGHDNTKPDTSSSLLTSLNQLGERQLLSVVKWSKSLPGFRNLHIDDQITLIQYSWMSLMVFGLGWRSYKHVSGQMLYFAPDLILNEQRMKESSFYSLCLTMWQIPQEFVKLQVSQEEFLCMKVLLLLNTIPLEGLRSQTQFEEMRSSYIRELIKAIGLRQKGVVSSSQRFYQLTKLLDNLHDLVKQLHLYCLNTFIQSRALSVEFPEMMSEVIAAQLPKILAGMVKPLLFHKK

Progesterone receptor [2] = target: T1, Progesterone receptor; experiment: Binding affinity to human progesterone receptor
[3] = target: T2, Progesterone receptor (Homo sapiens) (UniProt P06401); experiment: Antagonistic efficacy towards human progesterone receptor (hPR) using the cotransfection assay in CV-1 cells; Not active; type: functional, cell-based
T2 sequence (whole entry): T1 sequence (P06401 whole entry)

[4] = target: T2, Progesterone receptor (Homo sapiens); experiment: Agonist efficacy towards human progesterone receptor (hPR) using the cotransfection assay in CV-1 cells; type: functional, cell-based
Progesterone receptor [5] = target: T1, Progesterone receptor; experiment: Effective concentration for agonist activity towards human progesterone receptor (hPR) using the cotransfection assay in CV-1 cells; type: functional, cell-based
[6] = target: T2, Progesterone receptor (Homo sapiens); experiment: Antagonistic efficacy towards human progesterone receptor (hPR) using the cotransfection assay in CV-1 cells; type: functional, cell-based
Progesterone receptor [7] = target: T1, Progesterone receptor; experiment: Inhibitory concentration for antagonistic activity towards human progesterone receptor (hPR) using the cotransfection assay in CV-1 cells; type: functional, cell-based
Progesterone receptor [8] = target: T1, Progesterone receptor; experiment: Effective concentration for agonist activity towards human progesterone receptor (hPR) expressed in CV-1 cells; Not active; type: functional, cell-based
[9] = target: T2, Progesterone receptor (Homo sapiens); experiment: Agonist efficacy towards human progesterone receptor (hPR) expressed in CV-1 cells; Not active; type: functional, cell-based
[10] = target: T3, Mineralocorticoid receptor (Homo sapiens, UniProt P08235); experiment: Antagonist activity at mineralocorticoid receptor (hMR); type: functional
T3 sequence (P08235 whole entry): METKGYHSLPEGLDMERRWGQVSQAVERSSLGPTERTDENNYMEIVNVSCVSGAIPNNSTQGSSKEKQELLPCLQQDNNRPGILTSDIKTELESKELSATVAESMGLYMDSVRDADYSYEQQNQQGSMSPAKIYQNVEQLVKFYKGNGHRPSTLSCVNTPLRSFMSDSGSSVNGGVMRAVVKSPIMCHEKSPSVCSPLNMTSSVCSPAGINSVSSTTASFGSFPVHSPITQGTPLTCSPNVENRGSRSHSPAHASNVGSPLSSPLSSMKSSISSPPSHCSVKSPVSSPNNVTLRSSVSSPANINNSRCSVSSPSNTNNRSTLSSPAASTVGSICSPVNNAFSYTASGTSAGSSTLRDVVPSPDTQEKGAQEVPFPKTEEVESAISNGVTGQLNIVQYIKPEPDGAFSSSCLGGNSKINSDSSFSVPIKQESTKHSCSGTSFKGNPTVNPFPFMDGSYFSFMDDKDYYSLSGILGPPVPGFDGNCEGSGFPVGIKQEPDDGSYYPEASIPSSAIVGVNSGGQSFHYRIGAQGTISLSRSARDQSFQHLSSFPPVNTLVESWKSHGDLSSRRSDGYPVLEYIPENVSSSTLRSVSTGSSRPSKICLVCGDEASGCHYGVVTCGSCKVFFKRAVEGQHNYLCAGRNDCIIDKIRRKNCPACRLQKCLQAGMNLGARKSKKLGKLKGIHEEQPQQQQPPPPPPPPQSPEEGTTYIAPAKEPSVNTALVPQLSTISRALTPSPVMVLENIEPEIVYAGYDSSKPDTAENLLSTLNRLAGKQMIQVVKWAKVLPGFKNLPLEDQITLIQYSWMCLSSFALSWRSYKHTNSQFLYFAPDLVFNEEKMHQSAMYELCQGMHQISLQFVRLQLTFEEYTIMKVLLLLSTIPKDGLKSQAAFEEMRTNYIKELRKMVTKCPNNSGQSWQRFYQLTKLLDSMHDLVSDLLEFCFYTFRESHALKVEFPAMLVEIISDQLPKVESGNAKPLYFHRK

Androgen receptor = target: T4, Androgen receptor (Homo sapiens, UniProt P10275); experiment: Antagonist activity against human Androgen receptor; type: functional
T4 sequence (P10275 whole entry): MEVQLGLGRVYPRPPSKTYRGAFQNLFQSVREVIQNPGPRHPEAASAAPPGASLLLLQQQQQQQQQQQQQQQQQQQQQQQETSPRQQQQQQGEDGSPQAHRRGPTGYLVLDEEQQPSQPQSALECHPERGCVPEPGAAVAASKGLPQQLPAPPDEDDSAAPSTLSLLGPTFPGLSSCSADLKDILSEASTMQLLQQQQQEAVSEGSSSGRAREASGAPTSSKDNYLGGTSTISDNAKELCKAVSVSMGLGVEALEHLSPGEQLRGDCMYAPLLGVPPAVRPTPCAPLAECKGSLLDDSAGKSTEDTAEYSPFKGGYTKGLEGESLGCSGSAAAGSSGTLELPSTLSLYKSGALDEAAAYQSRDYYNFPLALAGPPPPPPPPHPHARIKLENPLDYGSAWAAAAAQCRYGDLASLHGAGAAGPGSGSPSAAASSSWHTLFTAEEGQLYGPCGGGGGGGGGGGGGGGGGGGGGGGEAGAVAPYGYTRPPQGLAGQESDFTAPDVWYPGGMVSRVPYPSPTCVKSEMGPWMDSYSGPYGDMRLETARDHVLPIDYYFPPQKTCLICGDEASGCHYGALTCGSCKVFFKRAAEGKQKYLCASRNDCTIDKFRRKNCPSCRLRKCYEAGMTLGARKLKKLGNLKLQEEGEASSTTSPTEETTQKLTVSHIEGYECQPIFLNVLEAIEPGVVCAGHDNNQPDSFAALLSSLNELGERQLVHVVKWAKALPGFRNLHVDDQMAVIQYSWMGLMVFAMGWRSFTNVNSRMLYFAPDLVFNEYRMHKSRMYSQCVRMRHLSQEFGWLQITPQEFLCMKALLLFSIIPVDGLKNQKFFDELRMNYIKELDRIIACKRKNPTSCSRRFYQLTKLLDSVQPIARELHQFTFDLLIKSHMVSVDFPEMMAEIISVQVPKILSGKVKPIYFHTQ

[11] = target: T5, Mineralocorticoid receptor (Homo sapiens) (UniProt P08235); experiment: Antagonist efficacy at mineralocorticoid receptor (hMR); type: functional
T5 sequence (whole entry): T3 sequence (P08235 whole entry)

Glucocorticoid receptor = target: T6, Glucocorticoid receptor (Homo sapiens, UniProt P04150); experiment: Antagonist activity at glucocorticoid receptor; type: functional
T6 sequence (P04150 whole entry): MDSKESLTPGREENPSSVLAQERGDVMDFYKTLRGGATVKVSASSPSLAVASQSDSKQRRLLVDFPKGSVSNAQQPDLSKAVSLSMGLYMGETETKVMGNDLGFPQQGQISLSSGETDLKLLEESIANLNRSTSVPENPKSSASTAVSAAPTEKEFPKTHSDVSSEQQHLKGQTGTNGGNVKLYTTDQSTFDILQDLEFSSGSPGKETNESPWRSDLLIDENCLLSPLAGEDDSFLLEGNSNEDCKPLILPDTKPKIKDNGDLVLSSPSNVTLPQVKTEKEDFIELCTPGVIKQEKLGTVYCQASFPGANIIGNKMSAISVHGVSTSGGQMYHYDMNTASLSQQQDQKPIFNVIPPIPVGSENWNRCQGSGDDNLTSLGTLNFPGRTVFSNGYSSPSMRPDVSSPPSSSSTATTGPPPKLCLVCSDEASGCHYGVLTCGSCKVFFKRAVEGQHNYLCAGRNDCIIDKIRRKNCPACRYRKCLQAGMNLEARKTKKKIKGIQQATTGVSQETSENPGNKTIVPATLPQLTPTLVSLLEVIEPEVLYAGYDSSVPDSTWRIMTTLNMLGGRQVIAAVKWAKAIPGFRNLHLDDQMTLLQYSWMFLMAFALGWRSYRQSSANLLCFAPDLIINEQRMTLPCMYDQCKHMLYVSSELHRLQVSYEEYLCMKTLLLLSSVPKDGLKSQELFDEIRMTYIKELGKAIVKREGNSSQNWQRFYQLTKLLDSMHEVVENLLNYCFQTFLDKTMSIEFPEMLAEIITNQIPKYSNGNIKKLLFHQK

Progesterone receptor [12] = target: T1, Progesterone receptor; experiment: Inhibition of antagonist binding to human progesterone receptor (hPR); Not active

Compound	IC50 (Progesterone receptor [1])	Ki (Progesterone receptor [2]) [nM]	Efficacy [3]	Efficacy [4] [%]	EC50 (Progesterone receptor [5]) [nM]	Efficacy [6] [%]	IC50 (Progesterone receptor [7]) [nM]	EC50 (Progesterone receptor [8])	Efficacy [9]	IC50 [10] [nM]	IC50 (Androgen receptor) [nM]	Efficacy [11] [%]	IC50 (Glucocorticoid receptor) [nM]	IC50 (Progesterone receptor [12])
C=C(/C=C1\Oc2ccc(F)cc2-c2ccc3c(c21)C(C)=CC(C)(C)N3)C(C)C	Not Active	26	inactive	122	29	–	–	–	–	–	–	–	–	–
CC1=CC(C)(C)Nc2ccc3c(c21)/C(=C/C1CCCCC1)Oc1ccc(F)cc1-3	–	> 100	–	28	48	70	800	–	–	–	–	–	–	–
CC1=CC(C)(C)Nc2ccc3c(c21)/C(=C/C#N)Oc1ccc(F)cc1-3	–	45	–	70	2700	75	65	–	–	–	–	–	–	–
CC1=CC(C)(C)Nc2ccc3c(c21)/C(=C/C=O)Oc1ccc(F)cc1-3	–	> 100	–	–	–	97	243	Not Active	inactive	–	–	–	–	–
CC1=CC(C)(C)Nc2ccc3c(c21)/C(=C/c1ccccc1C)Oc1ccccc1-3	Not Active	–	inactive	–	–	–	–	–	–	–	–	–	–	–
C=C1Oc2ccc(F)cc2-c2ccc3c(c21)C(C)=CC(C)(C)N3	Not Active	6.1	inactive	87	1000	–	–	–	–	–	–	–	–	–
CC1=CC(C)(C)Nc2ccc3c(c21)C(=C(c1ccccc1)c1ccccc1)Oc1ccc(F)cc1-3	–	> 100	–	–	–	90	1930	Not Active	inactive	–	–	–	–	–
CC(=O)/C=C1\Oc2ccc(F)cc2-c2ccc3c(c21)C(C)=CC(C)(C)N3	–	> 100	–	–	–	91	124	Not Active	inactive	–	–	–	–	–
CC1=CC(C)(C)Nc2ccc3c(c21)C(=C1SCCCS1)Oc1ccc(F)cc1-3	Not Active	–	inactive	151	2.1	–	–	–	–	681	180	92	146	–
CC/C(C)=C1/Oc2ccc(F)cc2-c2ccc3c(c21)C(C)=CC(C)(C)N3	–	16.7	–	64	27	38	980	–	–	–	–	–	–	–
CCC/C=C1\Oc2ccc(F)cc2-c2ccc3c(c21)C(C)=CC(C)(C)N3	–	3.1	inactive	90	28	–	–	–	–	–	–	–	–	Not Active
